Square brackets hold non-standard residues; d marks the D form. Ends that are not written are not given here. Peptide text beside a SMILES is read from it.
Key:
in vitro = conditions: male, human, plasma, Mean residual amount
Procedure: (§1) Ten μl of a 300 M solution of hGHRH (1-29)NH2 or of a GHRH analogue was solubilized in dimethylsulfoxide (DMSO) and incubated in one of the following conditions: a—190 μl serum (1/100 dilution in picopure water) from 2-month-old male Sprague Dawley rats, at 37° C. for 0, 8, 15, 30 or 60 min, in polypropylene tubes; b—190 μl of human healthy volunteer plasma (from Human Whole Blood Na EDTA, males, drug free (Algorithme Pharma Inc.); project: MTL-P2-155; Lot: MTLP2155-01, supplied by LAB Dev Int); and c—190 μl of human healthy volunteer pooled serum, Lot: X409 (supplied by LAB Dev Int), at 37° C. for 0, 60, 120, 180 or 420 min, in polypropylene tubes. Proteolysis was stopped by adding 800 μl of ice-cold stop buffer (potassium-phosphate buffer, acidified to pH 0.8 with trifluoroacetic acid (TFA) and boiling 5 min (rat serum only). After centrifugation (12000 g, 5 min, 4° C.) (rat serum only), serum-peptide mixtures were passed through a conditioned Sep-Pak C-18 cartridge to extract native GHRH or a GHRH analogue residual concentrations from serum proteins. The native GHRH or the analogue was eluted in 2 ml of 50% acetonitrile-0.01% TFA/50% 0.01% aqueous TFA. Two hundred μl of extracted peptide, representing 1 μg of GHRH or analogue at time 0, was quantified by analytical HPLC, using one μ-Bondapak C18 column (10 μm particle size, 0.39×15 cm) (rat serum) or two C18 column in series (human serum and plasma) and a binary solvent system composed of NaClO4 0.01 M, pH 2.5 and acetonitrile. A linear gradient from 30 to 60% acetonitrile over 45 min (rat serum) or 30 to 50% (human serum and plasma) was used.
(§2) More specifically, the values represent the mean, standard deviation and standard error from the mean of 3 to 7 experiments.

human GHRH receptor = molecular target: T1, human GHRH receptor (Homo sapiens, UniProt Q02643); assay: Competitive 125I-GHRH binding assay in BHK cell membrane preparations expressing the human GHRH receptor; conditions: ratio IC50 of hGHRH(1-29)-NH2/IC50 analogue, mean±SEM
T1 construct: expressed in transfected cells; host or cells: BHK (baby hamster kidney) 570 cells
T1 sequence (Q02643 23-423): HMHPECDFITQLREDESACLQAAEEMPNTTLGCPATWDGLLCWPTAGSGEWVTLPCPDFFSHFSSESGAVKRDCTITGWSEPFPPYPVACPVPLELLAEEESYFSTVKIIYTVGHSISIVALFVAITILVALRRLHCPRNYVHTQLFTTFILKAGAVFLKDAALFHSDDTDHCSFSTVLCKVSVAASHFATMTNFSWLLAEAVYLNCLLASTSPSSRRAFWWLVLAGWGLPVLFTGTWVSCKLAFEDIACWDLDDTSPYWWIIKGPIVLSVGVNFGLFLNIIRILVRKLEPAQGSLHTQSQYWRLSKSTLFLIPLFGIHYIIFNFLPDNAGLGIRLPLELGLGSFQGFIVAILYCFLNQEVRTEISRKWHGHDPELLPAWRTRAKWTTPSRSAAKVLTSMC
Procedure: Non specific binding was determined in presence of 1 μM hGHRH(1-29)NH2. Incubation was carried out at equilibrium (23° C., 60 min) and stopped by centrifugation (12,000 g, 5 min, at 4° C.). The radioactivity content in pellets was determined by gamma counting. The affinity of hGHRH(1-29) NH2 was tested in each experiment to assess the validity of the assay and determine the relative affinity of the analogues.
Values represent the mean±SEM of 3 experiments performed in triplicate for the analogues and the mean±SEM of 2 experiments performed in triplicate for hGHRH(1-44) NH2.
For the binding assay results presented in Tables 8 to 11, values represent the mean±SEM of 8 independent experiments performed in triplicate for the analogues and the mean±SEM of 4 experiments performed in triplicate for hGHRH(1-29)NH2. […] The relative affinity was obtained by taking the ratio IC50 of hGHRH (1-29)-NH2/IC50 analogue.

[1] = In vitro proteolysis assay in rat serum; format: in vitro ADME; conditions: mean±SEM; for Residual concentration: incubation 0 min; for remaining at 8 min, 15 µM / remaining at 0.25 h, 15 µM / remaining at 0.5 h, 15 µM / remaining at 1 h, 15 µM: male, Sprague Dawley, read-out: Residual concentration; for remaining at 8 min, 15 µM: diluted 1/100, incubation 8 min; for remaining at 0.25 h, 15 µM: diluted 1/100, incubation 15 min; for remaining at 0.5 h, 15 µM: diluted 1/100, incubation 30 min; for remaining at 1 h, 15 µM: diluted 1/100, incubation 60 min
Procedure: Proteolysis was stopped by adding 800 μl of ice-cold stop buffer (potassium-phosphate buffer, acidified to pH 0.8 with trifluoroacetic acid (TFA) and boiling 5 min (rat serum only). After centrifugation (12000 g, 5 min, 4° C.) (rat serum only), serum-peptide mixtures were passed through a conditioned Sep-Pak C-18 cartridge to extract native GHRH or a GHRH analogue residual concentrations from serum proteins. The native GHRH or the analogue was eluted in 2 ml of 50% acetonitrile-0.01% TFA/50% 0.01% aqueous TFA. Two hundred μl of extracted peptide, representing 1 μg of GHRH or analogue at time 0, was quantified by analytical HPLC, using one μ-Bondapak C18 column (10 μm particle size, 0.39×15 cm) (rat serum) or two C18 column in series (human serum and plasma) and a binary solvent system composed of NaClO4 0.01 M, pH 2.5 and acetonitrile. A linear gradient from 30 to 60% acetonitrile over 45 min (rat serum) or 30 to 50% (human serum and plasma) was used.

[2] = In vitro proteolysis assay in human serum; format: in vitro ADME; conditions: human serum
Procedure: as §1, §2

Row | remaining at 1 h, 15 µM (in vitro) | remaining at 2 h, 15 µM (in vitro) | remaining at 3 h, 15 µM (in vitro) | Relative binding affinity (R1) in comparison with hGHRH(1-29)NH2 in BHK cells expressing the hGHRH receptor (human GHRH receptor; listed as 1) | Relative binding affinity (R1) in comparison with hGHRH(1-29)NH2 in BHK cells expressing the hGHRH receptor (human GHRH receptor; listed as #1) | Residual concentration [1] | remaining at 8 min, 15 µM [1] | remaining at 0.25 h, 15 µM [1] | remaining at 0.5 h, 15 µM [1] | remaining at 1 h, 15 µM [1] | Relative binding affinity (R1) in comparison with hGHRH(1-29)NH2 in BHK cells expressing the hGHRH receptor (human GHRH receptor; D-Tyr^10, Lys^22]human GHRH(1-29)NH2) | Relative binding affinity (R1) in comparison with hGHRH(1-29)NH2 in BHK cells expressing the hGHRH receptor (human GHRH receptor) | remaining at 7 h, 15 µM (in vitro) | Mean residual amount ([2]; incubation time 0 min) | Mean residual amount ([2]; incubation time 420 min) | remaining at 1 h, 15 µM ([2]; human, pooled human serum, incubation time 60 min, read-out: Mean residual amount) | remaining at 2 h, 15 µM ([2]; human, pooled human serum, incubation time 120 min, read-out: Mean residual amount) | remaining at 3 h, 15 µM ([2]; human, pooled human serum, incubation time 180 min, read-out: Mean residual amount) | remaining at 7 h, 15 µM ([2]; human, pooled human serum, incubation time 420 min, read-out: Mean residual amount) | Compound
1 | 87% | 78% | 81% |  |  | 100 ± 0 % of initial concentration | 82 ± 7% | 88 ± 7% | 70 ± 12% | 36 ± 4% | 239 ± 55 |  |  |  |  |  |  |  |  | CC[C@H](C)[C@H](NC(=O)[C@H](C)NC(=O)[C@H](CC(=O)O)NC(=O)[C@@H](C)NC(=O)[C@@H](N)Cc1ccc(O)cc1)C(=O)N[C@@H](Cc1ccccc1)C(=O)N[C@H](C(=O)N[C@@H](CC(N)=O)C(=O)N[C@@H](CO)C(=O)N[C@H](Cc1ccc(O)cc1)C(=O)N[C@@H](CCCNC(=N)N)C(=O)N[C@@H](CCCCN)C(=O)N[C@H](C(=O)N[C@@H](CC(C)C)C(=O)NCC(=O)N[C@@H](CCC(N)=O)C(=O)N[C@@H](CC(C)C)C(=O)N[C@@H](CO)C(=O)N[C@@H](C)C(=O)N[C@@H](CCCNC(=N)N)C(=O)N[C@@H](CCCCN)C(=O)N[C@@H](CCCCN)C(=O)N[C@@H](CC(C)C)C(=O)N[C@@H](CCC(N)=O)C(=O)N[C@@H](CC(=O)O)C(=O)N[C@H](C(=O)N[C@@H](CCSC)C(=O)N[C@@H](CO)C(=O)N[C@@H](CCCNC(=N)N)C(N)=O)[C@@H](C)CC)C(C)C)[C@@H](C)O [GHRH analogue #3, [D-Ala^2, D-Tyr^10, Lys^22] hGHRH(1-29)-NH2] (H-Y[dA]DAIFTNS[dY]RKVLGQLSARKKLQDIMSR-NH2; N-terminus assumed)
2 |  |  |  |  |  | 100 ± 0 % of initial concentration | 98 ± 2% | 100% | 99 ± 1% | 97 ± 3% |  | 0.05 ± 0.01 |  |  |  |  |  |  |  | CC[C@H](C)[C@H](NC(=O)[C@H](C)NC(=O)[C@H](CC(=O)O)NC(=O)[C@@H](C)NC(=O)[C@@H](N)Cc1ccc(O)cc1)C(=O)N[C@@H](Cc1ccccc1)C(=O)N[C@H](C(=O)N[C@@H](C)C(=O)N[C@@H](CO)C(=O)N[C@H](Cc1ccc(O)cc1)C(=O)N[C@@H](CCCNC(=N)N)C(=O)N[C@@H](CCCCN)C(=O)N[C@H](C(=O)N[C@@H](CC(C)C)C(=O)N[C@@H](C)C(=O)N[C@@H](CCC(N)=O)C(=O)N[C@@H](CC(C)C)C(=O)N[C@@H](CO)C(=O)N[C@@H](C)C(=O)N[C@@H](CCCNC(=N)N)C(=O)N[C@H](CCCCN)C(=O)N[C@@H](CCCCN)C(=O)N[C@@H](CC(C)C)C(=O)N[C@@H](CCC(N)=O)C(=O)N[C@@H](CC(=O)O)C(=O)N[C@H](C(=O)N[C@@H](CCSC)C(=O)N[C@@H](CO)C(=O)N[C@@H](CCCNC(=N)N)C(N)=O)[C@@H](C)CC)C(C)C)[C@@H](C)O [GHRH analogue #4, [D-Ala^2, Ala^8, D-Tyr^10, Ala^15, D-Lys^21, Lys^22] hGHRH(1-29)-NH2] (H-Y[dA]DAIFTAS[dY]RKVLAQLSAR[dK]KLQDIMSR-NH2; N-terminus assumed)
3 | 53% | 44% | 23% |  |  | 100 ± 0 % of initial concentration | 81 ± 2% | 66 ± 3% | 43 ± 2% | 16 ± 1% |  |  | 5% | 100% | disappeared totally | 57% | 37% | 16% | 0% | CC[C@H](C)[C@H](NC(=O)[C@H](C)NC(=O)[C@H](CC(=O)O)NC(=O)[C@H](C)NC(=O)[C@@H](N)Cc1ccc(O)cc1)C(=O)N[C@@H](Cc1ccccc1)C(=O)N[C@H](C(=O)N[C@@H](CC(N)=O)C(=O)N[C@@H](CO)C(=O)N[C@@H](Cc1ccc(O)cc1)C(=O)N[C@@H](CCCNC(=N)N)C(=O)N[C@@H](CCCCN)C(=O)N[C@H](C(=O)N[C@@H](CC(C)C)C(=O)NCC(=O)N[C@@H](CCC(N)=O)C(=O)N[C@@H](CC(C)C)C(=O)N[C@@H](CO)C(=O)N[C@@H](C)C(=O)N[C@@H](CCCNC(=N)N)C(=O)N[C@@H](CCCCN)C(=O)N[C@@H](CC(C)C)C(=O)N[C@@H](CC(C)C)C(=O)N[C@@H](CCC(N)=O)C(=O)N[C@@H](CC(=O)O)C(=O)N[C@H](C(=O)N[C@@H](CCSC)C(=O)N[C@@H](CO)C(=O)N[C@@H](CCCNC(=N)N)C(N)=O)[C@@H](C)CC)C(C)C)[C@@H](C)O [hGHRH(1-29)NH2, reference compound]

Continued, compound first:

Row | Compound | remaining at 1 h, 15 µM (in vitro) | remaining at 2 h, 15 µM (in vitro) | remaining at 3 h, 15 µM (in vitro) | Relative binding affinity (R1) in comparison with hGHRH(1-29)NH2 in BHK cells expressing the hGHRH receptor (human GHRH receptor; listed as 1) | Relative binding affinity (R1) in comparison with hGHRH(1-29)NH2 in BHK cells expressing the hGHRH receptor (human GHRH receptor; listed as #1) | Residual concentration [1] | remaining at 8 min, 15 µM [1] | remaining at 0.25 h, 15 µM [1] | remaining at 0.5 h, 15 µM [1] | remaining at 1 h, 15 µM [1] | Relative binding affinity (R1) in comparison with hGHRH(1-29)NH2 in BHK cells expressing the hGHRH receptor (human GHRH receptor; D-Tyr^10, Lys^22]human GHRH(1-29)NH2) | Relative binding affinity (R1) in comparison with hGHRH(1-29)NH2 in BHK cells expressing the hGHRH receptor (human GHRH receptor) | remaining at 7 h, 15 µM (in vitro) | Mean residual amount ([2]; incubation time 0 min) | Mean residual amount ([2]; incubation time 420 min) | remaining at 1 h, 15 µM ([2]; human, pooled human serum, incubation time 60 min, read-out: Mean residual amount) | remaining at 2 h, 15 µM ([2]; human, pooled human serum, incubation time 120 min, read-out: Mean residual amount) | remaining at 3 h, 15 µM ([2]; human, pooled human serum, incubation time 180 min, read-out: Mean residual amount) | remaining at 7 h, 15 µM ([2]; human, pooled human serum, incubation time 420 min, read-out: Mean residual amount)
4 | CC[C@H](C)[C@H](NC(=O)[C@H](C)NC(=O)[C@H](CC(=O)O)NC(=O)[C@@H](C)NC(=O)[C@@H](N)Cc1ccc(O)cc1)C(=O)N[C@@H](Cc1ccccc1)C(=O)N[C@H](C(=O)N[C@@H](C)C(=O)N[C@@H](CO)C(=O)N[C@@H](Cc1ccc(O)cc1)C(=O)N[C@@H](CCCNC(=N)N)C(=O)N[C@@H](CCCCN)C(=O)N[C@H](C(=O)N[C@@H](CC(C)C)C(=O)N[C@@H](C)C(=O)N[C@@H](CCC(N)=O)C(=O)N[C@@H](CC(C)C)C(=O)N[C@@H](CO)C(=O)N[C@@H](C)C(=O)N[C@@H](CCCNC(=N)N)C(=O)N[C@@H](CCCCN)C(=O)N[C@@H](CCCCN)C(=O)N[C@@H](CC(C)C)C(=O)N[C@@H](CCC(N)=O)C(=O)N[C@@H](CC(=O)O)C(=O)N[C@H](C(=O)N[C@@H](CCSC)C(=O)N[C@@H](CO)C(=O)N[C@@H](CCCNC(=N)N)C(N)=O)[C@@H](C)CC)C(C)C)[C@@H](C)O [GHRH analogue #1, [D-Ala^2, Ala^8, Ala^15, Lys^22] hGHRH(1-29)-NH2] (H-Y[dA]DAIFTASYRKVLAQLSARKKLQDIMSR-NH2; N-terminus assumed) | 79% | 63% | 68% | 499 ± 234 | significantly higher binding affinity | 100 ± 0 % of initial concentration | 75 ± 12% | 70 ± 15% | 53 ± 8% | 30 ± 6% |  |  |  |  |  |  |  |  | 
5 | YADAIFTAAYRKVLAQLSARKALQDIMSR-NH2 [GHRH analogue #2, [Ala^8, Ala^9, Ala^15, Ala^22] hGHRH(1-29)-NH2] |  |  |  |  |  | 100 ± 0 % of initial concentration | 83 ± 3% | 73 ± 5% | 53 ± 3% | 29 ± 2% |  |  |  |  |  |  |  |  | 

— patent US20090023646A1, “GHRH analogues” (Centre Hospitalier de L'Universite de Montreal (CHUM), priority 2002, published 2009)
